Columns and labels:
[1] = tested on: OK-CTL (HLA-A2-restricted cytotoxic T-lymphocyte strain); assay: CTL activation test: T2 cells pulsed with peptide co-cultured with OK-CTL, IFN-γ by ELISA; assay type: cell-based, human; details: E/T ratio=10, 18 hours, dose-dependent
Experimental: The T2 cells, pulsed with each peptide in this way, were used as the target cells (T). In addition, the OK-CTL obtained in Example 1 were used as effector cells (E). Target cells amounting to 1×10^4 and effector cells amounting to 1×10^5 were mixed (E/T ratio=10) and incubated for 18 hours. After incubation, 100 μl of supernatant was collected, and IFN-γ was measured by ELISA. The quantity of IFN-γ produced by CTL against T2 cells that were not pulsed with a peptide was taken as the background and subtracted from each measurement value.

HLA-A2+ tumor cells = assay: Peptide-stimulated PBMC of multiple sclerosis patients: recognition of tumor cells (IFN-γ); assay type: cell-based, human; details: PBMC from multiple sclerosis patients
Experimental: (§1) The PBMC were prepared by methods of the art from the blood of three primary brain tumor patients and one metastatic brain tumor patient. The PBMC obtained were stimulated by incubation with each peptide in the same way as in Example 4, and were cultured by the same method as in Example 3 using T2 cells that were pulsed with each corresponding peptide or KNS60 tumor cells as target cells, followed by measuring the quantity of IFN-γ produced. When T2 cells that were pulsed with the peptides were used as target cells, the PBMC was paired with the T2 cells in such a way that the peptide used to stimulate PBMC and the peptide pulsed to T2 cells were the same.
(§2) Among the 13 types of peptide obtained in Example 3, three peptides, P101 (SEQ ID NO: 1), P102 (SEQ ID NO: 2), and P103 (SEQ ID NO: 3), which were derived from clone 8B6, as well as three peptides, P104 (SEQ ID NO: 4), P105 (SEQ ID NO: 5), and P106 (SEQ ID NO: 6), which were derived from clone 2G2, were examined for their ability to induce CTL from PBMC obtained from multiple sclerosis patients having HLA-A2 as the HLA type and healthy subjects, in the same manner as in Example 5.

immunoglobulin E (IgE) = assay: ELISA for peptide-specific IgE in serum; assay type: binding, human; details: serum of MS patients
Experimental: The presence of immunoglobulin E (IgE) and immunoglobulin G (IgG) that specifically recognize P102 (SEQ ID NO: 2), P103 (SEQ ID NO: 3), P104 (SEQ ID NO: 4), or P106 (SEQ ID NO: 6) in the serum of a multiple sclerosis patient, a brain tumor patient, and a healthy subject was measured by the enzyme-linked immunosorbent assay (ELISA).
Each aforementioned peptide (20 μg/well) was immobilized in a 96-well Nunc Covalink flat-bottomed plate (Fisher Scientific), using disuccinimidyl suberate (PIERCE), following the product instructions. This plate was blocked with Block Ace (Yukijirushi) and washed with 0.05% Tween20-PBS; a serum or blood plasma sample was diluted with 0.05% Tween20-Block Ace and added to the plate at 100 μl/well. After incubation for 2 hours at 37° C., the plate was washed with 0.05% Tween20-PBS and further incubated for 2 hours at 37° C. with rabbit anti-human IgE antibody (E chain-specific), anti-human IgG antibody (y chain-specific) (DAKO), or anti-human IgG subclass-specific antibody (Zymed Laboratories), each of which were diluted to 1:1000. […] Thereafter, the reaction was stopped by adding 1 M phosphoric acid, and the optical density (OD) at 450 nm was measured. In so doing, peptides derived from EBV, HIV, SART2 (JP-11-318455), or SART3 (Cancer Research, 1999, Volume 59, pp. […]) were used as controls and measured similarly. […]

[2] = tested on: PBMC of HLA-A2+ brain tumor patients; targets T2 cells pulsed with corresponding peptide and/or HLA-A2+ tumor cells; assay: Induction of CTL by peptides from PBMC of brain tumor patients (Example 5): IFN-γ production; assay type: cell-based, human; details: Patient Case 4 (brain tumor)
Experimental: as §1

[3] = tested on: PBMC of multiple sclerosis patients; T2 cells pulsed with corresponding peptide; assay: Peptide recognition in PBMC of multiple sclerosis patients (Example 6): IFN-γ production against peptide-pulsed T2 cells; assay type: cell-based, human; details: MS Patient Case 7
Experimental: as §1, §2

IMSRDLVPRI (Designed peptide recognized by HLA-A2-restricted cytotoxic T lymphocytes) [P102, peptide derived from clone 8B6]
recognition by OK-CTL / production of IFN-γ from OK-CTL [1]: enhanced production of IFN-γ from OK-CTL | recognition of tumor cells by peptide-stimulated PBMC (HLA-A2+ tumor cells): did not recognize the tumor cells | IgE that specifically recognizes the peptide (immunoglobulin E (IgE)): is present | production of IFN-γ from PBMC [2]: enhanced production of IFN-γ | production of IFN-γ from PBMC [3]: enhanced production of IFN-γ

From patent US20050019341A1, “Tumor antigen” (priority 2001, published 2005)
